Patent publication US11712473B2, “Sensitizer-peptide conjugate” (UNIVERSITY OF ULSTER, priority 2017, dated 2023)
“Also recorded” adds a separate entry of the source. RB = Rose Bengal carboxylic acid derivative, attached to the N-terminus

Assays:
[1] = system: B16-F10-Luc2 melanoma tumour; test: PDT and SDT treatment of ectopic B16 melanoma tumours in SCID mice (Example 6); type: in vivo; conditions: 100 μL of 100 μM by tail vein injection
Description: B16-F10-Luc2 cells (3×10^5) maintained as described in Example 3, were re-suspended in 100 μL of PBS and implanted into the rear dorsum of SCID mice. Four days after implantation tumour measurements were taken using calipers and tumour volume calculated from the geometric mean diameter using the equation: tumour volume=4πR^3/3. The animals were then randomly distributed into […] (n=5): Group 1 involved untreated animals; Group 2 treated with the RB-(KLAKLAK)2 (SEQ ID NO. 1) conjugate and no light; Group 3 treated with the RB-(KLAKLAK)2 (SEQ ID NO. 1) conjugate and light; Group 4 treated with the RB-(KLAKLAK)2 (SEQ ID NO. 1) conjugate and SDT, and Group 5 treated with RB and light. Following induction of anaesthesia (intraperitoneal injection of Hypnorm/Hypnovel), a 100 μL aliquot of PBS containing 100 μM RB or the RB-(KLAKLAK)2 (SEQ ID NO. 1) conjugate was administered by tail vein injection. Group 3 and Group 5: 30 minutes later tumours were exposed to white light for 3 min (68.4 J/cm^−2). […] After treatment, animals were allowed to recover from anaesthesia and tumour volume was monitored for 12 days with animals retreated using the same conditions on days 1, 2, 7 and 9. The % increase in tumour volume was calculated employing the pre-treatment measurements for each group. […]

[2] = system: B16-F10-Luc2 melanoma cells; test: PDT of B16 melanoma cells, MTT cell viability assay; type: cell-based, murine; conditions: 2.5, 5.0, 10 μM, 3 h incubation, white light 1 min (22.8 J/cm^2), viability 24 h later
Description: (§1) Murine melanoma B16-F10 Luc-2 cells were maintained Dulbecco's Modified Eagle Media (DMEM) supplemented with 10% foetal bovine serum (FBS) and 1% penicillin streptomycin. The cells were incubated at 37° C. in a humidified 5% (v/v) CO2 atmosphere. Cells were seeded at a concentration of 4×10^3 cells per well in 96-well tissue culture plate for 24 hours. The medium was removed from each well and the cells incubated for 3 h with drug (100 μL) at concentrations of 2.5 μM, 5.0 μM and 10 μM in media. The drug solution was then removed and selected wells exposed to white light for 1 min (22.8 J/cm^2). Fresh media was then added to each of the wells and cell viability determined 24 h later using a MTT assay. Each experiment was repeated on 3 separate occasions with an n=6 on each occasion.

[3] = system: B16-F10-Luc2 melanoma cells; test: PDT of B16 melanoma cells, bioluminescent assay; type: cell-based, murine; conditions: 2.5, 5.0, 10 μM plus white light (22.8 J/cm^2)
Description: as §1
For the bioluminescent assay, imaging was undertaken using a Xenogen IVIS-100 bioluminescence/fluorescence optical imaging system. Treatments were performed as described above. D-Luciferin at 1.5% w/w was then added to treated wells and bioluminescence intensity was quantified 5 min later using the IVIS-100 system and Living Image Software as per protocol (Caliper LifeSciences). Regions of interest (RoI) were drawn around the wells to evaluate the intensity of signal emitted and expressed photons/second (p/s).

[4] = system: B16-F10-Luc2 melanoma cells; test: SDT of B16 melanoma cells, MTT cell viability assay; type: cell-based, murine; conditions: 2.5, 5.0, 10 μM, 3 hours incubation, ultrasound, viability 24 hours later
[5] = system: B16-F10-Luc2 melanoma tumour; test: PDT of B16 melanoma tumour growth in a mouse model (Example 5); type: in vivo, SCID mice; conditions: for tumour growth / tumour size, as part of PDT: 100 μL of 100 μM by tail vein injection, white light 3 min (68.4 J/cm^-2) 30 minutes later, retreated days 1, 2, 7, 9
Description: In these studies all animals were treated humanely and in accordance with licensed procedures under the UK Animals (Scientific Procedures) Act 1986. B16-F10-Luc2 cells (3×10^5) maintained as described in Example 3, were re-suspended in 100 μL of PBS and implanted into the rear dorsum of SCID mice. Four days after implantation tumour measurements were taken using calipers and tumour volume calculated from the geometric mean diameter using the equation: tumour volume=4πR^3/3. The animals were then randomly distributed into four groups (n=5): Group 1 involved untreated animals; Group 2 treated with the RB-(KLAKLAK)2 (SEQ ID NO. 1) conjugate and no light; Group 3 treated with the RB-(KLAKLAK)2 (SEQ ID NO. 1) conjugate and light; Group 4 treated with RB and light. Following induction of anaesthesia (intraperitoneal injection of Hypnorm/Hypnovel), a 100 μL aliquot of PBS containing 100 μM RB or the RB-(KLAKLAK)2 (SEQ ID NO. 1) conjugate was administered by tail vein injection. Group 3 and Group 4: 30 minutes later tumours were exposed to white light for 3 min (68.4 J/cm^−2). After treatment, animals were allowed to recover from anaesthesia and tumour volume was monitored for 12 days with animals retreated using the same conditions on days 1, 2, 7 and 9. The % increase in tumour volume was calculated employing the pre-treatment measurements for each group. On day 13, the animals were euthanized and the tumours were removed for analysis.

[6] = system: MCF-7 invasive breast ductal carcinoma cells; test: PDT of MCF-7 breast cancer cells, MTT cell viability assay; type: cell-based, Human; conditions: 0.05, 0.1, 0.5, 1 μM, 3 h incubation, white light 1 min (22.8 J/cm^2), viability 24 h later
Description: (§2) Human MCF-7 invasive breast ductal carcinoma cells were maintained Dulbecco's Modified Eagle Media (DMEM) supplemented with 10% foetal bovine serum (FBS) and 1% penicillin streptomycin. The cells were incubated at 37° C. in a humidified 5% (v/v) CO2 atmosphere. Cells were seeded at a concentration of 5×10^3 cells per well in 96-well tissue culture plate for 24 hours. The medium was removed from each well and the cells incubated for 3 h with drug (100 μL) at concentrations of 0.05 μM, 0.1 μM, 0.5 μM and 1 μM in media. The drug solution was then removed and the cells washed twice with PBS, fresh media was added and selected wells exposed to white light for 1 min (22.8 J/cm^2). Fresh media was then added to each of the wells and cell viability determined 24 h later using a MTT assay. Each experiment was repeated on 3 separate occasions with an n=6 on each occasion.

[7] = system: PANC-1 epithelioid carcinoma cells; test: PDT of PANC-1 pancreatic cancer cells, MTT cell viability assay; type: cell-based, Human; conditions: 0.05, 0.1, 0.5, 1 μM, 3 h incubation, white light 1 min (22.8 J/cm^2), viability 24 h later
Description: as §2, with “PANC-1 epithelioid” for “MCF-7 invasive breast ductal”

Substance | tumour growth, as part of SDT ([1]; ultrasound 3.5 min, 3 W cm-2, 1 MHz, duty cycle 30%) | tumour growth, as part of PDT ([1]; white light 3 min (68.4 J/cm^-2) 30 minutes later) | cell viability (MTT), cytotoxic effect as part of PDT [2] | cell viability (MTT), cytotoxic effect as part of PDT ([2]; listed as RB-C(KLAKLAK)2 L enantiomer) | bioluminescent intensity relative to the control [3] | cell viability (MTT), cell killing as part of SDT [4] | tumour growth / tumour size, as part of PDT [5] | tumour growth / tumour size, as part of PDT ([5]; listed as conjugate of Rose Bengal and a peptide having the amino acid sequence defined by) | tumour growth, as part of SDT ([5]; as stated in the result sentence of Example 5) | cell viability (MTT), cell killing as part of PDT [6] | cell viability (MTT), cell killing as part of PDT [7]
RB-(KLAKLAK)2: conjugate of Rose Bengal and all-D peptide Lys-Leu-Ala-Lys-Leu-Ala-Lys-Lys-Leu-Ala-Lys-Leu-Ala-Lys (SEQ ID NO: 1), no cysteine (KLAKLAKKLAKLAK; not fully specified; Rose Bengal conjugate; all-D amino acids) | effectively reduced B16-F10-Luc2 melanoma tumour growth | effectively reduced B16-F10-Luc2 melanoma tumour growth; also recorded: PDT was superior |  |  |  |  |  |  |  |  | 
RB-C(KLAKLAK)2: conjugate of Rose Bengal and peptide Cys-Lys-Leu-Ala-Lys-Leu-Ala-Lys-Lys-Leu-Ala-Lys-Leu-Ala-Lys (SEQ ID NO: 2) ({RB}-CKLAKLAKKLAKLAK-NH2; also: Rose Bengal conjugate, site not given here) |  |  | significantly better than photodynamic therapy using Rose Bengal alone; also recorded: effectively killed B16-F10-Luc2 melanoma cells | more potent cytotoxic effect than the RB-C(KLAKLAK)2 (SEQ ID NO. 2) D enantiomer | significant reduction in bioluminescence | effectively killed B16-F10-Luc2 melanoma cells | effectively reduced B16-F10-Luc2 melanoma tumour growth; also recorded: inhibited tumour growth to a greater extent | significant reduction in tumour size | effectively reduced B16-F10-Luc2 melanoma tumour growth | effectively killed MCF-7 invasive breast ductal carcinoma cells | effectively killed PANC-1 epithelioid carcinoma cells
RB-C(KLAKLAK): conjugate of Rose Bengal and peptide Cys-Lys-Leu-Ala-Lys-Leu-Ala-Lys (SEQ ID NO: 6) ({RB}-CKLAKLAK-NH2; not fully specified) |  |  |  |  |  |  |  |  |  | effectively killed MCF-7 invasive breast ductal carcinoma cells | effectively killed PANC-1 epithelioid carcinoma cells
